This is an account of results in publication PMC9586926, “An efflux-susceptible antibiotic-adjuvant with systemic efficacy against mouse infections” (Scientific Reports, 2022).

The subject of series [1] is E. coli 25922. As to conditions: ref 23 (C14(ɷ5)OOc10O), ref 41 (PMBN); cited from earlier work. From the text: Towards better understanding the synergistic mechanism, we compared individual growth kinetics to determine contributions of each antimicrobial and assessed the type and extent of implicated membrane damages, assuming that low OM-permeability underlies the observed antibiotics inefficiencies by impeding their intracellular accumulation.

The subject of series [2] is E. coli 25922. Put plainly: Cytoplasmic membrane depolarization, DiSC3(5) fluorescence. In kind it is cell-based, Escherichia coli. Conditions: C10BBc12B up to 10 µM; PMB 2.5 µM. As for the experimental part:
Lipopeptides aptitude to depolarize the CM was evaluated using fluorescent measurements of the transmembrane potential sensitive dye 3,3′-Dipropylthiadicarbocyanine iodide (DiSC3(5))[69]. Bacteria (O.D.600 nm = 0.1) were washed by centrifugation at 10,000 RCF for 5 min, supernatant aspiration, and pellet resuspension in 5 mM HEPES containing 20 mM glucose, 50 mM KCl and 0.2 mM EDTA (pH = 7.2). This suspension was mixed with DiSC3(5) (400 µM in DMSO) to reach a final DiSC3(5) concentration of 4 µM and was incubated in the dark for 1 h at 37 °C with shaking. Then, 180 µl of this mixture were dispensed into black microtiter plates and fluorescence was recorded (excitation: 622 nm; emission: 670 nm) at 37 °C with shaking until baseline stabilization (BioTek Instruments Synergy HT; Winooski, VT, USA). Finally, 20 µl of HEPES containing serial twofold dilutions of lipopeptides were added and fluorescence was recorded for up to 30 min at the same conditions.

The test system of series [3] is E. coli Ag100a (ΔacrAB). Put plainly: MIC, broth microdilution, efflux deficient mutant. As to conditions: Ag100a. In kind it is cell-based, Escherichia coli. The text has this: (§1) Bacteria used in this study consisted of standard American Type Culture Collection (ATCC; Biological Industries, Beit Haemek, Israel) strains, clinically isolated (CI; Sourasky Medical Center, Tel Aviv, Israel) strains, as well as isogenic mutant strains. Gram-negative bacteria included Acinetobacter baumannii ATCC 19606; Escherichia coli ATCC 25922, 35218, CFT073, CI 14384, 16327, and the isogenic pair Ag100 (wild-type) and its efflux deficient mutant Ag100a (ΔacrAB); Klebsiella pneumoniae CI 1287, 224; Pseudomonas aeruginosa ATCC 27853, CI 1278, 8634; Salmonella enterica serovar Typhimurium ATCC 14028 (wild-type) and its isogenic efflux deficient mutant ΔacrAB. Bacteria were grown in Luria–Bertani broth (LB; 5 g/l NaCl, 5 g/l yeast extract, 10 g/l tryptone; pH = 7.0) at 37 °C with shaking. Over-night cultures were diluted 10-folds into fresh growth-medium and incubated at 37 °C with shaking until reaching mid-logarithmic phase. Then, bacterial concentrations were adjusted using O.D.600 nm measurements, and bacteria were subjected to the experimental procedures listed herein.
(§2) MIC was determined according to the broth microdilution method: antimicrobials were subjected to serial twofold dilutions in LB medium, and incubated with 5 × 10^5 CFU/ml of bacteria (final volume of 200 µl) for 18–24 h at 37 °C. […]

Series [4] has as its system S. Typhimurium 14028ΔAcrAB. Put plainly: MIC, broth microdilution, efflux deficient mutant. In kind it is cell-based, Salmonella enterica serovar Typhimurium.
Description: as §1, §2
A general note: Dilution methods test growth across graded concentrations, often in twofold steps.

The subject of series [5] is S. Typhimurium 14028 (wild-type). Put plainly: MIC, broth microdilution, wild-type strain. In kind it is cell-based, Salmonella enterica serovar Typhimurium.
Description: as §1, §2

The subject of series [6] is E. coli 25922. Put plainly: Outer membrane permeabilization, NPN fluorescence. In kind it is cell-based, Escherichia coli. As for the experimental part: Lipopeptides ability to permeabilize the OM was evaluated using fluorescent measurements of N-phenyl-1-naphthylamine (NPN)[67]. 200 µl of an over-night culture were diluted into 10 ml of fresh LB medium and incubated at 37 °C with shaking until reaching O.D.600 nm = 0.5. The culture was then centrifuged at 10,000 RCF for 3 min, the supernatant aspirated, and the pellet resuspended in equal volume of 5 mM HEPES containing 5 mM glucose (pH = 7.2). This suspension was then mixed with NPN (5 mM in acetone) to reach a final NPN concentration of 10 µM. Then, 190 µl of this mixture were dispensed into black microtiter plates, mixed with 10 µl of HEPES containing serial twofold dilutions of lipopeptides and fluorescence (excitation: 360 nm; emission: 460 nm) was recorded immediately for up to 10 min at 37 °C with shaking[29] (BioTek Instruments Synergy HT; Winooski, VT, USA). In a modified version of this assay, in which efflux was inhibited, bacteria (similarly prepared) were incubated with the lipopeptides in presence or absence of 100 µM CCCP for 5 min. Samples were then twice centrifuged at 10,000 RCF for 3 min, the supernatant aspirated, and the pellet resuspended in equal volume of 5 mM HEPES containing 20 mM glucose (pH = 7.2), so as to re-energize the efflux machinery. NPN was then added (final concentration of 10 µM) and fluorescence was recorded immediately thereafter.

For series [7], the system named is E. coli Ag100 (wild-type). Description: MIC, broth microdilution, wild-type strain. In kind it is cell-based, Escherichia coli.
Description: as §1, §2

A further series relates to E. coli. Description: MIC, broth microdilution. As to conditions: broth microdilution in LB, 18–24 h, 37 °C; n = 4 strains; published data in bold (not discernible). In kind it is cell-based, Escherichia coli.
Description: as §1
(§3) MIC was determined according to the broth microdilution method: antimicrobials were subjected to serial twofold dilutions in LB medium, and incubated with 5 × 10^5 CFU/ml of bacteria (final volume of 200 µl) for 18–24 h at 37 °C. Then, O.D.620 nm was measured (BioTek Instruments Synergy HT; Winooski, VT, USA), and the MIC was defined as the lowest antimicrobial concentration for which no increase in O.D.620 nm was evident, compared to the untreated control.

Series [8] relates to S. Typhimurium 14028ΔAcrAB. As to conditions: cited from earlier work. The text has this:
Table 2 Effect of RND pumps on growth-inhibitory activity. | column: MIC^a (µM) in LB / S. Typhimurium / Mutant

Series [9] relates to S. Typhimurium 14028 (wild-type). Conditions: cited from earlier work. The text has this: Table 2 Effect of RND pumps on growth-inhibitory activity. | column: MIC^a (µM) in LB / S. Typhimurium / Wild-Type
For a further series, the system named is P. aeruginosa. Description: MIC, broth microdilution. Conditions: broth microdilution in LB, 18–24 h, 37 °C; n = 3 strains. In kind it is cell-based, Pseudomonas aeruginosa.
Description: as §1, §3

A further series has as its system A. baumannii. Description: MIC, broth microdilution. In kind it is cell-based, Acinetobacter baumannii. Conditions: broth microdilution in LB, 18–24 h, 37 °C; n = 1 strain.
Description: as §1, §3

In the next series the test system is murine RBC. Description: Hemolysis. In kind it is cell-based. As to conditions: 1% hematocrit murine RBC, 3 h, 37 °C. As for the experimental part:
Permeabilization of red blood cells (RBC) was evaluated using absorbance measurements of extracellular hemoglobin. Serial twofold dilutions of lipopeptides were incubated with 1% hematocrit of murine RBC for 3 h at 37 °C with shaking. Samples were then centrifuged at 20,000 RCF for 5 min, and absorbance of the supernatants was measured at 450 nm (BioTek Instruments Synergy HT; Winooski, VT, USA). Percent hemolysis was then calculated by (AS − AN)/(AP − AN) × 100; where AS, AN, and AP represent the absorbance of the sample, negative control (PBS) and positive control (Milli-Q water), respectively. LC50 values were extracted from trend-lines generated for linear-regions of plots correlating lipopeptide concentrations and percent hemolysis.

The subject of a further series is RAW 264.7. Put plainly: Cytotoxicity, Alamar blue. In kind it is cell-based, murine. As to conditions: 24 h incubation, read-out: IC50 RAW 264.7 (50% inhibition of cells respiration). As for the experimental part: (§4) Cell lines used in this study included murine RAW 264.7 macrophages and human embryonic kidney HEK-293FT cells (ATCC, Biological Industries, Beit Haemek, Israel). Cells were grown in Dulbecco’s modified eagle medium (DMEM) containing […] glucose, L-glutamine, sodium bicarbonate and sodium pyruvate, supplemented with 10% fetal bovine serum and pen-strep, at 37 °C and 5% CO2.
(§5) Lipopeptides cytotoxicity was determined using fluorescent measurements of reduced resazurin. 2 × 10^4 cells were first cultured in 96-well plates over-night (final volume of 100 µl) at 37 °C and 5% CO2. Then, the medium was removed and cells were incubated for an additional 24 h with serial twofold dilutions of the lipopeptides in growth medium. Then, 10 µl of Alamar blue were added and plates were incubated for 3 h, after which fluorescence (excitation: 530 nm; emission: 590 nm) of the reduced resazurin was recorded (BioTek Instruments Synergy HT; Winooski, VT, USA).
(Resazurin is reduced to fluorescent resorufin, in cell work by metabolically active cells.)

The subject of another series is K. pneumoniae. Put plainly: MIC, broth microdilution. In kind it is cell-based, Klebsiella pneumoniae. As to conditions: broth microdilution in LB, 18–24 h, 37 °C; n = 2 strains.
Description: as §1, §3

Series [10] relates to E. coli 25922. Conditions: same assessment tools; cited from earlier work. The text has this: To our knowledge, the finding of an adjuvant whose activity is enhanced—rather than repressed—after efflux, is hitherto unreported. One might ask, at this point: If the K-, O and B-based analogs are efflux substrates (as implied by MIC data, Table 2), how come only C10BBc12B is positively affected by efflux?

On the set-up of series [11]: method as in PMID 28329302. Conditions: 40 mg/kg dose; cited from earlier work.
Series [12] concerns E. coli Ag100a (ΔacrAB). Conditions: cited from earlier work. The text has this:
Table 2 Effect of RND pumps on growth-inhibitory activity. | column: MIC^a (µM) in LB / E. coli / Mutant

In the next series the test system is HEK-293FT. Put plainly: Cytotoxicity, Alamar blue. In kind it is cell-based, human. As to conditions: 24 h incubation, read-out: IC50 HEK-293FT (50% inhibition of cells respiration). As for the experimental part:
as §4, §5

The test system of series [13] is E. coli Ag100 (wild-type). Conditions: cited from earlier work. From the text: Table 2 Effect of RND pumps on growth-inhibitory activity. | column: MIC^a (µM) in LB / E. coli / Wild-Type

pIC50: −log10 of the molar value. ≈ marks a conversion by molar mass, not a printed value. Where two headings read alike, the source gives them in different places. Where a SMILES comes first, the peptide text is derived from it. [ ]: non-standard residue; d: D form. The star is where a group is joined. 12Ado = NCCCCCCCCCCCC(=O)O; Decanoyl = CCCCCCCCCC(=O)*; Orn = NCCC[C@H](N)C(=O)O

Consider polymyxin B nonapeptide [PMBN], for which the “effect of sub-inhibitory concentrations on bacterial growth in absence of antibiotics” value in the series on E. coli 25922 [1] was “transiently inhibited bacterial growth”.

With Polymyxin B [reference compound], in the series on E. coli 25922 [2], the “CM depolarization (trans-membrane potential)” value is “rapid CM-depolarization”. In addition, the “MIC (µM) in LB, E. coli Mutant” value in the series on E. coli Ag100a (ΔacrAB) [3] was determined as 0.7 µM. Further, in [4], the “MIC (µM) in LB, S. Typhimurium Mutant” value was determined as 0.7 µM. Also, the “MIC (µM) in LB, S. Typhimurium Wild-Type” value in series [5] is 0.7 µM. In the series on E. coli 25922 [6], the “reduction of NPN fluorescence by 10 mM MgCl2” value is recorded as “much less”. Moreover, in series [7], the “MIC (µM) in LB, E. coli Wild-Type” value is given as 0.7 µM.

On to `CCCCCCCCCC(=O)N[C@@H](CCCN)C(=O)N[C@@H](CCCN)C(=O)NCCCCCCCCCCCC(=O)N[C@@H](CCCN)C(N)=O` [C10OOc12O] (Decanoyl-[Orn][Orn][12Ado][Orn]-NH2), for which the “MIC E. coli (n=4)” value with E. coli was no less than 50 µM. In addition, in series [8], the “MIC (µM) in LB, S. Typhimurium Mutant” value was 6.2 µM (≈ 4.41 µg/mL). For the same compound, the “MIC (µM) in LB, S. Typhimurium Wild-Type” value in series [9] is reported as greater than 50 µM. Besides, in the series on P. aeruginosa, the “MIC P. aeruginosa (n=3)” value is recorded as greater than 50 µM. Also, in the series on A. baumannii, the “MIC A. baumannii (n=1)” value was greater than 50 µM. Also, in the series with murine RBC, the “LC50 Erythrocytes (50% hemolysis)” value is greater than 50 µM. Further, the pIC50 in the series on RAW 264.7 and with HEK-293FT was less than 4.30 each time. For the same compound, the “MIC K. pneumoniae (n=2)” value with K. pneumoniae is greater than 50 µM. In the series with E. coli 25922 [10], the CM depolarization result is recorded as “interact with the CM to the point of inducing its depolarization”. Besides, the mortality result in series [11] is “mortality of another mouse was recorded within an hour”. In the series on E. coli Ag100a (ΔacrAB) [12], the “MIC (µM) in LB, E. coli Mutant” value is reported as 6.2 µM (≈ 4.41 µg/mL). In series [13], the “MIC (µM) in LB, E. coli Wild-Type” value is greater than 50 µM.
